Source: patent US5196427A, “3-aryl-4(3H) quinazolinone CCK antagonists and pharmaceutical formulations thereof” (Eli Lilly and Company, priority 1991, dated 1993)

The molecules below were run against T1, Brain CCK receptor (Mus musculus, UniProt P56481) (assay: Brain CCK receptor binding (mouse brain membranes, 125I-CCK-8 sulfate)). Settings: not given.
T1 construct: from tissue; host or cells: forebrain membranes of male CF-1 mice
T1 sequence (P56481 1-453): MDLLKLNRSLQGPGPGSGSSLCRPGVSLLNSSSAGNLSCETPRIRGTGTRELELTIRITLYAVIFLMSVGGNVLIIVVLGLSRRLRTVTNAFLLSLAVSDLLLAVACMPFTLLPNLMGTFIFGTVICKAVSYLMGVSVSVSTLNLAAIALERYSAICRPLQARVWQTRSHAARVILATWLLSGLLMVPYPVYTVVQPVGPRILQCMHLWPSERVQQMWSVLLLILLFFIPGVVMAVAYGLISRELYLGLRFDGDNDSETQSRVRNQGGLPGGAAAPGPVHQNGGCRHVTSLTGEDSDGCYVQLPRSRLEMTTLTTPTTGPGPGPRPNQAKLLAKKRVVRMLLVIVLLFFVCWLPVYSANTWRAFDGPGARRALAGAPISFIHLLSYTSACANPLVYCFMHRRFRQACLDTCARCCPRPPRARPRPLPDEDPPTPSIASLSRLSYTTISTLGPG
Procedure: Brain CCK receptor binding was performed using mouse brain membranes according to the method of Chang and Lotti (Proc. Natl. Acad. Sci. 83: 4923-4926, 1986). Male CF-1 mice, 23-25 g were sacrificed by cervical dislocation, the forebrain removed and placed in ice cold 50 mM Tris buffer, pH 7.4. The tissue was homogenized in 100 volumes of the Tris buffer with a Brinkman Polytron or Tekmar Tissumizer and then centrifuged at 40,000 g for 10 min. Pellets were resuspended in Tris buffer, centrifuged as above and then resuspended in 100 volumes of assay buffer, pH 6.5 (20 mM N-2-hydroxyethyl-piperazine-N'-2-ethane sulfonic acid (HEPES), 1 mM ethylene glycol bis(2-aminoethyl ether-N,N,N',N'-tetraaceticacid) (EGTA), 5 mM MgCl2, 130 mM NaCl, and 0.25 mg/ml bacitracin). The binding assay consisted of 50 μL of compound (or buffer for total binding), 50 μL of ^125 I-CCK-8 sulfate (20 pM) (Amersham IM-159), 200 μL of assay buffer and 200 μL of homogenate (80-120 μg protein). The samples were incubated at room temperature (25°) for 2 hours, and they were then filtered through GF/B glass fiber filters (soaked in wash buffer for 2 hours before use) using a 48 well Brandel cell harvester designed for receptor binding. The filters were washed twice with 3 ml of 50 mM Tris buffer, pH 7.4, containing 0.01% BSA and then counted for radioactivity in plastic tubes with a Micromedic 10/600 automatic gamma counter.
Compounds were dissolved in dimethyl sulfoxide (DMSO) at a concentration of 10 mM and then further diluted with assay buffer. […] IC-50 values of displacement curves were determined using 7 concentrations of compound and were calculated using the ALLFIT computer program of DeLean, Munson and Rodbard (Am. J. Physiol. 235: E97-E102, 1978). Non-specific binding was determined as the displacement of the radioligand by 100 nM CCK-8 sulfate.
`COc1ccc(-n2c(CCc3c[nH]c4ccccc34)nc3ccccc3c2=O)cc1` [Example 51] gave an IC50 of 98 ± 7 nM.

Same assay, conditions: mouse brain membranes; 1 μM
With `COc1cccc(-n2c(CC(c3ccccc3)c3c[nH]c4ccccc34)nc3ccccc3c2=O)c1` (centres unmarked) [Example 5, 2-[2-Phenyl-2-(3-indolyl)ethyl]-3-(3-methoxyphenyl)-4-(3H)quinazolinone] the inhibition at 1 µM was 57%. With `CC(C)Oc1cccc(-n2c(CCc3c[nH]c4ccc(Br)cc34)nc3ccc(Cl)cc3c2=O)c1` [Example 66] the inhibition at 1 µM was 90%. In the case of `CCCc1cc(-n2c(CCc3c[nH]c4ccc(Br)cc34)nc3ccccc3c2=O)ccc1OC` [Example 43], the inhibition at 1 µM is reported as 85%.

Same assay, conditions: mouse brain membranes; 10 μM; read-out: Brain % inhibition in binding assay
Molecule `O=c1c2ccccc2nc(CCc2c[nH]c3ccccc23)n1-c1ccccc1C(F)(F)F` [Example 11] has an inhibition at 10 µM of 35%. `COc1cccc(-n2c(CC(Cc3ccccc3)c3c[nH]c4ccccc34)nc3ccccc3c2=O)c1` (centres unmarked) [Example 65] showed an inhibition at 10 µM of 70%.

Same assay, conditions: mouse brain membranes; Mean ± SEM, n = 3; values without SEM n = 1; read-out: Brain IC50
`CN(C)c1cccc(-n2c(CCc3c[nH]c4ccc(Cl)cc34)nc3ccccc3c2=O)c1` [Example 39] showed an IC50 of 13 nM. Molecule `COc1cccc(-n2c(CC(C)c3c[nH]c4ccc(Br)cc34)nc3ccccc3c2=O)c1` (centres unmarked) [Example 63] has an IC50 of 100 nM. `O=c1c2ccccc2nc(CCc2c[nH]c3ccc(Cl)cc23)n1-c1cccc(C(F)(F)F)c1` [Example 35] was tested, and the IC50 was 230 nM. `CCCOc1ccc(-n2c(CCc3c[nH]c4ccc(Br)cc34)nc3ccccc3c2=O)cc1` [Example 54] gave an IC50 of 1200 nM. Work on `Cc1ccc2[nH]cc(CCc3nc4ccccc4c(=O)n3-c3cccc(C(F)(F)F)c3)c2c1` [Example 36] yielded an IC50 of 190 nM. In the case of `O=c1c2ccccc2nc(CCc2c[nH]c3ccccc23)n1-c1ccc2c(c1)OCO2` [Example 42], the IC50 is reported as 190 ± 40 nM. Work on `CN(C)c1ccc(-n2c(CCc3c[nH]c4ccc(Br)cc34)nc3ccccc3c2=O)cc1` [Example 57] yielded an IC50 of 33 ± 6 nM. In the case of `COc1ccc2[nH]cc(CCc3nc4ccccc4c(=O)n3-c3cccc(OC(C)C)c3)c2c1` [Example 27], the IC50 is reported as 19 nM. Molecule `COc1ccc2[nH]cc(CCc3nc4ccccc4c(=O)n3-c3cccc(C(F)(F)F)c3)c2c1` [Example 37] has an IC50 of 130 nM. Molecule `CCOc1ccc(-n2c(CCc3c[nH]c4ccc(Br)cc34)nc3ccccc3c2=O)cc1` [Example 53] has an IC50 of 88 ± 10 nM. For `CC(C)c1ccc(-n2c(CCc3c[nH]c4ccc(Br)cc34)nc3ccccc3c2=O)cc1` [Example 48], the IC50 was 37 ± 13 nM. For `COc1ccc(-n2c(CCc3c[nH]c4ccc(Br)cc34)nc3ccccc3c2=O)cc1OC` [Example 46], the IC50 was 130 ± 30 nM. For `CN(C)c1cccc(-n2c(CCc3c[nH]c4ccc(Br)cc34)nc3ccccc3c2=O)c1` [Example 38], the IC50 was 16 ± 1 nM. `O=c1c2ccccc2nc(CCc2c[nH]c3ccc(Br)cc23)n1-c1cccc(C(F)(F)F)c1` [Example 34] was tested, and the IC50 was 230 ± 30 nM. With `CN(C)c1ccc(-n2c(CCc3c[nH]c4ccc(Cl)cc34)nc3ccccc3c2=O)cc1` [Example 58] the IC50 was 87 nM. `O=c1c2ccccc2nc(CCc2c[nH]c3cc(Cl)ccc23)n1-c1ccccc1` [Example 7] gave an IC50 of 1100 nM. Molecule `CSc1ccc(-n2c(CCc3c[nH]c4ccc(Br)cc34)nc3ccccc3c2=O)cc1` [Example 60] has an IC50 of 37 ± 10 nM. With `CC(C)Oc1cccc(-n2c(CCc3c[nH]c4ccccc34)nc3ccccc3c2=O)c1` [Example 25] the IC50 was 26 ± 0.3 nM. `CC(C)Oc1cccc(-n2c(CCc3c[nH]c4ccc(Cl)cc34)nc3ccccc3c2=O)c1` [Example 26] was tested, and the IC50 was 19 ± 5 nM. `COc1cccc(-n2c(CCc3c[nH]c4ccc(C)cc34)nc3ccccc3c2=O)c1` [Example 21] was tested, and the IC50 was 55 ± 3 nM. For `CCOc1ccc(-n2c(CCc3c[nH]c4ccc(Br)cc34)nc3ccccc3c2=O)cc1C` [Example 44], the IC50 was 65 nM. `COc1cccc(-n2c(CCc3c[nH]c4ccc(F)cc34)nc3ccccc3c2=O)c1` [Example 18] showed an IC50 of 110 ± 10 nM. `CSc1cccc(-n2c(CCc3c[nH]c4ccc(Br)cc34)nc3ccccc3c2=O)c1` [Example 32] gave an IC50 of 46 ± 8 nM. Work on `CCN(CC)c1ccc(-n2c(CCc3c[nH]c4ccc(Br)cc34)nc3ccccc3c2=O)cc1` [Example 59] yielded an IC50 of 47 nM. `COc1cccc(-n2c(CCc3c[nH]c4ccc(OC)cc34)nc3ccccc3c2=O)c1` [Example 22] gave an IC50 of 67 ± 5 nM. Molecule `COc1cc(OC)cc(-n2c(CCc3c[nH]c4ccccc34)nc3ccccc3c2=O)c1` [Example 41] has an IC50 of 1800 nM. In the case of `CCCCOc1ccc(-n2c(CCc3c[nH]c4ccc(Br)cc34)nc3ccccc3c2=O)cc1` [Example 56], the IC50 is reported as 1100 nM. `COc1ccc(-n2c(CCc3c[nH]c4ccc(Br)cc34)nc3ccccc3c2=O)cc1C` [Example 45] gave an IC50 of 29 nM. Work on `CCOc1cccc(-n2c(CCc3c[nH]c4ccc(OC)cc34)nc3ccccc3c2=O)c1` [Example 24] yielded an IC50 of 33 nM. Work on `CCCCc1ccc(-n2c(CCc3c[nH]c4ccc(Br)cc34)nc3ccccc3c2=O)cc1` [Example 50] yielded an IC50 of 930 nM. In the case of `O=c1c2ccccc2nc(CCc2c[nH]c3ccc(Br)cc23)n1-c1cccc(N2CCCC2)c1` [Example 40], the IC50 is reported as 22 ± 3 nM. Work on `CC(C)c1ccc(-n2c(CCc3c[nH]c4ccc(Cl)cc34)nc3ccccc3c2=O)cc1` [Example 49] yielded an IC50 of 38 nM. With `CCc1ccc(-n2c(CCc3c[nH]c4ccc(Br)cc34)nc3ccccc3c2=O)cc1` [Example 47] the IC50 was 28 ± 4 nM. `COc1ccc2[nH]cc(CCc3nc4ccccc4c(=O)n3-c3ccccc3)c2c1` [Example 3, 2-[2-(5-methoxyindol-3-yl)-ethyl]-3-phenyl-4-(3H)quinazolinone] was tested, and the IC50 was 410 nM. `CC(C)Oc1ccc(-n2c(CCc3c[nH]c4ccc(Br)cc34)nc3ccccc3c2=O)cc1` [Example 55] showed an IC50 of 110 ± 20 nM. `COc1ccc2[nH]cc(CCc3nc4ccccc4c(=O)n3-c3cccc(SC)c3)c2c1` [Example 33] gave an IC50 of 34 nM. Work on `COc1cccc(-n2c(CCc3c[nH]c4ccc(Cl)cc34)nc3ccccc3c2=O)c1` [Example 19] yielded an IC50 of 47 ± 3 nM.

Same assay, conditions: read-out: Brain % inhibition in binding assay, mouse brain membranes; 10 μM
`O=c1c2ccccc2nc(CCc2c[nH]c3ccccc23)n1-c1ccccc1F` [Example 8] gave an inhibition at 10 µM of 75%. In the case of `O=c1c2ccccc2nc(CCc2c[nH]c3ccccc23)n1-c1ccccc1Cl` [Example 9], the inhibition at 10 µM is reported as 44%. `COc1ccccc1-n1c(CCc2c[nH]c3ccccc23)nc2ccccc2c1=O` [Example 10] showed an inhibition at 10 µM of 74%. Molecule `O=c1c2ccccc2nc(Cc2c[nH]c3ccccc23)n1-c1ccccc1` [Example 2, 2-(3-Indolylmethyl)-3-phenyl-4-(3H)quinazolinone] has an inhibition at 10 µM of 36%.
